Values quoted from earlier work as cited in patent US12133903B2, “Oral care article comprising a delivery carrier and solid hydrophilic particles comprising a bleaching agent” (The Procter & Gamble Company, priority 2020, dated 2024).

Conditions: in water; supplier data sheet / Safety Data Sheet / Wikipedia

For `NC(N)=O.OO` [Urea Hydrogen Peroxide Adduct], the Solubility is given as 80 parts per 100 parts of water.
